Among the data in ChEMBL document CHEMBL3351437, “Ralfuranone Is Produced by an Alternative Aryl-Substituted γ-Lactone Biosynthetic Route in Ralstonia solanacearum” (2014) are Activity and MIC values, retold here.

Assay [1] has as its system Mycolicibacterium vaccae. Description: Antimicrobial activity against Mycobacterium vaccae at 342 uM after 18 hrs by microdilution method. In kind it is functional, organism-based. (In general: In broth dilution the organism is exposed to a series of concentrations in liquid medium.)
The subject of assay [2] is Bacillus subtilis. Description: Antimicrobial activity against Bacillus subtilis at 342 uM after 18 hrs by microdilution method. In kind it is functional, organism-based.
For assay [3], the system named is Enterococcus faecalis. The experiment in a line: Antimicrobial activity against vancomycin-resistant Enterococcus faecalis at 342 uM after 18 hrs by microdilution method. Format: functional, organism-based.
The test system of assay [4] is Penicillium chrysogenum. Description: Antimicrobial activity against Penicillium notatum assessed as inhibition of conidia germination at 342 uM after 18 hrs by microdilution method. Format: functional, organism-based.
Assay [5] concerns Staphylococcus aureus. The experiment in a line: Antimicrobial activity against methicillin-resistant Staphylococcus aureus at 342 uM after 18 hrs by microdilution method. In kind it is functional, organism-based.
Assay [6] concerns Staphylococcus aureus. Description: Antimicrobial activity against Staphylococcus aureus at 342 uM after 18 hrs by microdilution method. In kind it is functional, organism-based.
Assay [7] relates to Mycolicibacterium vaccae. The experiment in a line: Antimicrobial activity against Mycobacterium vaccae after 18 hrs by microdilution method. Format: functional.
The subject of assay [8] is Enterococcus faecalis. The experiment in a line: Antimicrobial activity against vancomycin-resistant Enterococcus faecalis after 18 hrs by microdilution method. In kind it is functional.
Assay [9] concerns Bacillus subtilis. Description: Antimicrobial activity against Bacillus subtilis after 18 hrs by microdilution method. Format: functional.
Assay [10] deals with Penicillium chrysogenum. Description: Antimicrobial activity against Penicillium notatum assessed as inhibition of conidia germination after 18 hrs by microdilution method. In kind it is functional.
The test system of assay [11] is Staphylococcus aureus. The experiment in a line: Antimicrobial activity against methicillin-resistant Staphylococcus aureus after 18 hrs by microdilution method. In kind it is functional.
In assay [12] the test system is Staphylococcus aureus. The experiment in a line: Antimicrobial activity against Staphylococcus aureus after 18 hrs by microdilution method. Format: functional.

Each structure is given as a SMILES string. Values after ≈ are worked out from the molar mass of the structure shown. Active and inactive are the calls of the source. The calls are words filed in the database; no cut-off is given here.

For the compound `O=C1OCC(c2ccccc2)=C1C(O)c1ccccc1` (stereo unspecified), the outcome with Mycolicibacterium vaccae [1], with Bacillus subtilis [2], in the assay on Enterococcus faecalis [3], in the assay on Penicillium chrysogenum [4], in the assay with Staphylococcus aureus [5] and in the assay on Staphylococcus aureus [6] was inactive.

A word on the MIC: it is the lowest concentration that inhibits growth of the organism. As to `O=C(O)c1cn(C2CC2)c2cc(N3CCNCC3)c(F)cc2c1=O` [CIPROFLOXACIN], the minimal inhibitory concentration (MIC) with Mycolicibacterium vaccae [7] was 0.2 µg/mL; in the assay on Enterococcus faecalis [8], 1.56 µg/mL; in the assay with Bacillus subtilis [9], less than 0.05 µg/mL.

On to `C[C@@H]1[C@H](O)[C@@H](C)/C=C/C=C/C=C/C=C/C=C/C=C/C=C/[C@H](O[C@@H]2O[C@H](C)[C@@H](O)[C@H](N)[C@@H]2O)C[C@@H]2O[C@](O)(C[C@@H](O)C[C@@H](O)[C@H](O)CC[C@@H](O)C[C@@H](O)CC(=O)O[C@H]1C)C[C@H](O)[C@H]2C(=O)O` [AMPHOTERICIN B], for which the MIC in the assay on Penicillium chrysogenum [10] stood at 0.4 µg/mL.

In the case of `O=C(O)C1=C(c2ccccc2)/C(=C/c2ccccc2)C(=O)O1`, the MIC against Mycolicibacterium vaccae [7] came out at 10.6 µM; in the assay on Staphylococcus aureus [11], 5.3 µM (≈ 1.55 µg/mL); against Staphylococcus aureus [12], 5.3 µM (≈ 1.55 µg/mL); against Enterococcus faecalis [8], 21.2 µM; against Bacillus subtilis [9], 5.3 µM; in the assay on Penicillium chrysogenum [10], 42.4 µM.
